One assay addresses T1, CREBBP (1084-1701) (Homo sapiens, UniProt Q92793).
T1 construct: measured in the following biochemical assay using CREBBP (1084-1701); purchased
Kind of assay: Biochemical assay for CREBBP (1084-1701), SAMDI. The conditions noted are these: SAMDI, read-out: CREBBP Biochemistry IC50. The essentials:
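CREBBP (1084-1701) preincubated with compound 30 min at RT, then substrate mix (biotin-H3 11-25 K14R/K23R peptide, acetyl-CoA) added for 30 min at RT. Reaction stopped with formic acid, neutralised with sodium bicarbonate. Peptide acetylation read by SAMDI mass spectrometry to derive IC50.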

Another assay addresses T2, EP300 (P300(1048-1664)) (Homo sapiens, UniProt Q09472).
T2 construct: P300(1048-1664)
T2 sequence (Q09472 1048-1664): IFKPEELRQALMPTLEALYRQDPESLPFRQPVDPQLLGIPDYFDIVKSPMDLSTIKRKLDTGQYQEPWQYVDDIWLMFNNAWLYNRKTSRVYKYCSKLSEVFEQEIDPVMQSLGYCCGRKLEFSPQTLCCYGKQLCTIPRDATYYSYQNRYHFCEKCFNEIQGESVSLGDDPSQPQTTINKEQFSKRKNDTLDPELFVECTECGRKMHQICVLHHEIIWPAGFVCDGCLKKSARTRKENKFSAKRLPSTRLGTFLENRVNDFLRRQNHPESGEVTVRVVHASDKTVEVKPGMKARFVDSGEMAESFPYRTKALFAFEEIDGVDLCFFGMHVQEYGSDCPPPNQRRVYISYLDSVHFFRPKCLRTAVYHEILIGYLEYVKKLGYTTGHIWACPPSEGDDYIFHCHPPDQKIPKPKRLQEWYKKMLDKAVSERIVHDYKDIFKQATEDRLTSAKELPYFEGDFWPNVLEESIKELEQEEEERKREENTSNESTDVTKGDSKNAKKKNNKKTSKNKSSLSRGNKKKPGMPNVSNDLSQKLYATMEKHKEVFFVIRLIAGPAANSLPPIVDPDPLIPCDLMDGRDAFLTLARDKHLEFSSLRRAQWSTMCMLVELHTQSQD
As to the kind of experiment: Biochemical assay for EP300, SAMDI. The following applies: EP300, SAMDI; read-out: EP300 Biochemistry IC50. The text has this:
The following example describes materials and methods relating to a biochemical assay for EP300. IC50 values (micromolar (μM)) are summarized in Table 1, Table 2, and Table 3 under the column labeled: “EP300 Biochemistry IC50 (micromolar).”

In the next assay the test system is 647V cells. As to the kind of experiment: High throughput proliferation (HTP) assay. The class given is cell-based. The following applies: high throughput proliferation, read-out: CREBBP HTP IC50. The essentials:
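Exponentially growing 647V cells in DMEM with 15% FBS were treated in triplicate with increasing compound concentrations at 37° C, 5% CO2. Viable cell number was read by CellTiter-Glo luminescence on day 7; IC50 in micromolar.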

Assay [1] concerns H3K18Ac in HB-CLS-2 cells. Kind of assay: H3K18AC in-cell western (ICW) assay. The following applies: H3K18Ac in-cell western; read-out: CREBBP ICW IC50. The class given is cell-based. The essentials: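 HB-CLS-2 cells seeded 16–24 hours before 2 hr compound treatment at 37° C, 5% CO2, then methanol-fixed. H3K18Ac detected with rabbit monoclonal primary (overnight, 4° C) and 800CW anti-rabbit secondary; DRAQ5 stained DNA. Plates imaged at 700 and 800 nm for integrated intensity; IC50 in μM.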

Like-named read-outs stand apart in the source and are kept apart here.

T1 sequence (Q92793 1084-1701): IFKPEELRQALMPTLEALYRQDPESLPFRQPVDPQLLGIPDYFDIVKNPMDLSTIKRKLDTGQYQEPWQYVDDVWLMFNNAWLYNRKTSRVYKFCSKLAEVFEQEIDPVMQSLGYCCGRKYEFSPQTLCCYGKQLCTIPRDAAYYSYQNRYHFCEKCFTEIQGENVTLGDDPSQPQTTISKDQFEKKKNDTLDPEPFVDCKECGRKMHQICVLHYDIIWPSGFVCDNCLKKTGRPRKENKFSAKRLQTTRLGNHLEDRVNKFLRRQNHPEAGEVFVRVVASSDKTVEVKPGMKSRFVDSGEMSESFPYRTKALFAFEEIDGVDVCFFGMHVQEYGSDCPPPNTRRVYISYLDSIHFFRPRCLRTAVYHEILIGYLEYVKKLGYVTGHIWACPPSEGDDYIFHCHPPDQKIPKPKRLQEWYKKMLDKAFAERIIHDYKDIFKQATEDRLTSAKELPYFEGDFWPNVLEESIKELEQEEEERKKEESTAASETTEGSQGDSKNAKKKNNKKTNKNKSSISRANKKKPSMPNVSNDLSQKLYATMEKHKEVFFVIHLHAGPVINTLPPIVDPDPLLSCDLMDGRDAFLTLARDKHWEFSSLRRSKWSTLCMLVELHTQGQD

As for `CCn1ncc(CN(C)C(=O)c2nc(-c3cc(C)c(OCCCNC)c(NC)c3)nc3ccc(Cl)cc23)c1C` [Compound 451], the half-maximal inhibitory concentration (IC50) stood at 3010 nM at CREBBP (1084-1701); 3880 nM at EP300 (P300(1048-1664)); 2280 nM with 647V cells (Homo sapiens, 647-V); 13000 nM in assay [1].
In the same order, the values of `CCn1ncc(CN(C)C(=O)c2nc(-c3ccc(OCCNC)c(Cl)c3)nc3ccc(S(C)(=O)=O)cc23)c1C` [Compound 453] are 3910 nM, 2360 nM, 1200 nM and 4830 nM.
In the same order, the values of `CCn1ncc(CN(C)C(=O)c2cc(-c3ccc(NC4COC4)c(C)n3)nc3ccc(Cl)cc23)c1C` [Compound 454] are 22.7 nM, 5.5 nM, 133 nM and 141 nM.
`CCn1ncc(CN(C)C(=O)c2nc(-c3cc4c(NC(C)=O)n[nH]c4cc3C)nc3ccc(Cl)cc23)c1C` [Compound 455]: the IC50 was 353 nM at CREBBP (1084-1701); 114 nM on EP300 (P300(1048-1664)); 547 nM in the assay on 647V cells (Homo sapiens, 647-V); 1200 nM in assay [1].
In the same order, the values of `CCN(Cc1cnn(CC)c1C)C(=O)c1cc(-c2ccc(NCCNC)c(C)n2)nc2ccc(Cl)cc12` [Compound 456] are 104 nM, 880 nM, 626 nM and 1410 nM.
Regarding `CCn1ncc(CN(C)C(=O)c2cc(-c3ccc(NCC(O)CNC)c(C)n3)nc3ccc(Cl)cc23)c1C` (centres unmarked) [Compound 457], the 50% inhibitory concentration (IC50) stood at 15.5 nM on CREBBP (1084-1701); 5.7 nM on EP300 (P300(1048-1664)); 41.7 nM in the assay on 647V cells (Homo sapiens, 647-V); 188 nM in assay [1].
In the case of `CCn1ncc(CN(C)C(=O)c2nc(-c3cc(C)c4c(c3)NCCN4)nc3ccc(Cl)cc23)c1C` [Compound 458], the 50% inhibitory concentration (IC50) on CREBBP (1084-1701) worked out at 1430 nM; on EP300 (P300(1048-1664)) it was 1460 nM; with 647V cells (Homo sapiens, 647-V), 523 nM; in assay [1], 1050 nM.
In the same order, the values of `CCn1ncc(CN(C)C(=O)c2nc(-c3cc(C)c4c(N)[nH]nc4c3)nc3ccc(Cl)cc23)c1C` [Compound 459] are 13.9 nM, 4.5 nM, 54.4 nM and 60.4 nM.
In the same order, the values of `CCn1ncc(CN(C)C(=O)c2cc(-c3ccc(NCCNC)c(C)n3)nc3ccc(C(=O)N(C)C)cc23)c1C` [Compound 460] are no less than 50000 nM, no less than 50000 nM, 20000 nM and 20000 nM.
For the molecule `CCn1ncc(CN(C)C(=O)c2nc(-c3ccc(OCCCNC)c(C(C)(C)C)c3)nc3ccc(Cl)cc23)c1C` [Compound 462], the IC50 stood at 9700 nM at CREBBP (1084-1701); 15800 nM on EP300 (P300(1048-1664)); 1410 nM in the assay on 647V cells (Homo sapiens, 647-V); 16400 nM in assay [1].
In the same order, the values of `CCn1ncc(CN(C)C(=O)c2nc(-c3cc(C)c4c(c3)NC(=O)C4)nc3ccc(Cl)cc23)c1C` [Compound 463] are 2570 nM, 993 nM, 1510 nM and 1400 nM.
In the same order, the values of `CCn1ncc(CN(C)C(=O)c2nc(-c3ccc(OCCNC)c(Cl)c3)nc3ccc(CN(C)C)cc23)c1C` [Compound 464] are 38000 nM, 19300 nM, 2050 nM and 20000 nM.
Consider `CCn1ncc(CN(C(=O)c2cc(-c3ccc(NCCNC)c(C)n3)nc3ccc(Cl)cc23)C(C)C)c1C` [Compound 465], for which the 50% inhibitory concentration (IC50) turned out to be 364 nM on CREBBP (1084-1701); 1480 nM on EP300 (P300(1048-1664)); 1930 nM with 647V cells (Homo sapiens, 647-V); 4870 nM in assay [1].
In the same order, the values of `CCn1ncc(CN(C)C(=O)c2nc(-c3cc4c(N)noc4cc3C)nc3ccc(Cl)cc23)c1C` [Compound 466] are 29.5 nM, 71.5 nM, 189 nM and 202 nM.
With `CCn1ncc(C(=O)N(C)Cc2cc(-c3ccc(NCCNC)c(C)n3)nc3ccc(Cl)cc23)c1C` [Compound 467], the 50% inhibitory concentration (IC50) is no less than 50000 nM on CREBBP (1084-1701); 34200 nM at EP300 (P300(1048-1664)); 5580 nM in the assay with 647V cells (Homo sapiens, 647-V); 20000 nM in assay [1].
In the same order, the values of `CCn1ncc(CN(C)C(=O)c2nc(-c3cc(C)c4c(=O)[nH][nH]c4c3)nc3ccc(Cl)cc23)c1C` [Compound 468] are 10.2 nM, 13.5 nM, 158 nM and 213 nM.
In the same order, the values of `CCn1ncc(CN(C)C(=O)c2nc(-c3cc(C)nc(NCCN(C)C)c3)nc3ccc(Cl)cc23)c1C` [Compound 469] are 19.3 nM, 10.9 nM, 29.2 nM and 56.1 nM.
`CCn1ncc(CN(C)C(=O)c2nc(-c3cc(C)nc(NCCN(C)C)c3)nc3ccc(Cl)cc23)c1C` [Compound 470]: the IC50 was 18.8 nM on CREBBP (1084-1701), 9.9 nM on EP300 (P300(1048-1664)), 25.4 nM in the assay on 647V cells and 49 nM in assay [1].
With `CCn1ncc(CN(C)C(=O)c2cc(-c3ccc(NCCNC)c(C(F)(F)F)n3)nc3ccc(Cl)cc23)c1C` [Compound 471], the IC50 at CREBBP (1084-1701) was determined as 35.8 nM; on EP300 (P300(1048-1664)), 9.5 nM; in the assay on 647V cells (Homo sapiens, 647-V), 29.2 nM; in assay [1], 88.6 nM.
As for `CCn1ncc(CN(C)C(=O)c2cc(-c3ccc(NC4CCNC4)c(C)n3)nc3ccc(Cl)cc23)c1C` (centres unmarked) [Compound 472], the IC50 on CREBBP (1084-1701) stood at 25.4 nM; on EP300 (P300(1048-1664)), 10 nM; with 647V cells (Homo sapiens, 647-V), 48 nM; in assay [1] it was 132 nM.
In the same order, the values of `CCn1ncc(CN(C)C(=O)c2cc(-c3cc(CNC)cc(C)n3)nc3ccc(Cl)cc23)c1C` [Compound 473] are 322 nM, 392 nM, 380 nM and 730 nM.
In the case of `CCn1ncc(CN(C)C(=O)c2cc(-c3cnc(N)c(C)n3)nc3ccc(Cl)cc23)c1C` [Compound 474], the concentration for half-maximal inhibition (IC50) at CREBBP (1084-1701) turned out to be 22800 nM; at EP300 (P300(1048-1664)), 14500 nM; with 647V cells (Homo sapiens, 647-V), 12800 nM; in assay [1], 6530 nM.
In the same order, the values of `CCn1ncc(CN(C)C(=O)c2nc(-c3cc(C#N)c4nc[nH]c4c3)nc3ccc(COC)cc23)c1C` [Compound 475] are 920 nM, 974 nM, 757 nM and 888 nM.
In the same order, the values of `CCn1ncc(CN(C)C(=O)c2nc(-c3cc(C)cc(N[C@H]4CCNC4)c3)nc3ccc(Cl)cc23)c1C` [Compound 476] are 28.5 nM, 6.4 nM, 204 nM and 378 nM.
In the same order, the values of `CCc1ncc(CN(C)C(=O)c2cc(-c3ccc(OCC(O)CNC)c(C)n3)nc3ccc(COC)cc23)n1C` (centres unmarked) [Compound 477] are 141 nM, 47.6 nM, 1280 nM and 2070 nM.
In the case of `CCn1ncc(CN(C)C(=O)c2nc(-c3cc(C)cc(NC4CCNC4)c3)nc3ccc(COC)cc23)c1C` (centres unmarked) [Compound 479], the IC50 is 18 nM on CREBBP (1084-1701); 10.1 nM on EP300 (P300(1048-1664)); 43.6 nM with 647V cells (Homo sapiens, 647-V); 70.8 nM in assay [1].
In the same order, the values of `CCc1nc(-c2cc(C(=O)N(C)Cc3cnc(CC)n3C)c3cc(COC)ccc3n2)ccc1NCCNC` [Compound 486] are 59.8 nM, 30.1 nM, 89.5 nM and 314 nM.
In the same order, the values of `CCn1ncc(CN(C)C(=O)c2cc(-c3ccc(NCCNC)c(C)n3)nc3cc(COC)ccc23)c1C` [Compound 492] are 7240 nM, 5990 nM, 1670 nM and 2400 nM.
Take `CCn1ncc(CN(C)C(=O)c2nc(-c3cc(-c4ncc[nH]4)n(C)n3)nc3ccc(Cl)cc23)c1C` [Compound 495]: the IC50 on CREBBP (1084-1701) was 29.3 nM; at EP300 (P300(1048-1664)) it was 16.3 nM; with 647V cells (Homo sapiens, 647-V) it was 140 nM; in assay [1], 153 nM.

Source of the values: patent publication US20220144812A1, “QUINOLINE DERIVATIVES AND THEIR USE FOR THE TREATMENT OF CANCER” (Epizyme, Inc., priority 2019, published 2022).
